Assay [1] addresses T1, Probable flavin-dependent thymidylate synthase (Paramecium bursaria Chlorella virus 1, UniProt O41156).
T1 sequence (O41156 whole entry): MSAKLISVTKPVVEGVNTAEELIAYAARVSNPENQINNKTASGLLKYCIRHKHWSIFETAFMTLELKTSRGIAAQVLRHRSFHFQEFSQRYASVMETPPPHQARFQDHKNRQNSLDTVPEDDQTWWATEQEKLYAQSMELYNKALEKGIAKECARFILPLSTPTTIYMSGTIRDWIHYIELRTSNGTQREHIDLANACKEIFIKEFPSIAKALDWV
Briefly: Inhibition of PBCV1 Thymidylate synthase X.

Assay [2] has as its target T2, Probable flavin-dependent thymidylate synthase (Paramecium bursaria Chlorella virus 1) (UniProt O41156).
T2 sequence (whole entry): T1 sequence (O41156 whole entry)
Briefly: Reversal of inhibition of PBCV1 Thy X at 20 uM in presence of dUMP.

Assay [3] addresses T2, Probable flavin-dependent thymidylate synthase (Paramecium bursaria Chlorella virus 1). Briefly: Inhibition of PBCV1 Thymidylate synthase X in presence of triton X100 surfactant.
For assay [4] the target is unchanged. In words: Inhibition of PBCV1 Thymidylate synthase X in presence of bovine serum albumin surfactant.

The structures appear in SMILES notation. Activity calls are given as the source filed them. The rule behind the calls is not given here.

Turning to `CCOC(=O)[C@@H]1CSC(c2ccccc2)N1C(=O)c1cn(CCc2ccc(F)cc2)nn1` (stereo partly drawn), affinity in assay [1] was put at a Ki of 2000 nM.
On the same count and under the same terms, the result for `CCOC(=O)[C@@H]1CSC(c2ccccc2)N1C(=O)c1cn(CCCCCCCO)nn1` (stereo partly drawn) reads 3500 nM.
Regarding `CCCCCCC(=O)N(CC(=O)O)C[C@@H]1CSC(c2ccccc2)N1C(=O)c1ccccc1` (stereo partly drawn), the outcome in assay [2], in assay [3] and in assay [4] was Active. The IC50 (in general, the concentration that inhibits the measured activity by half) in assay [1] amounted to 130 nM. Besides, affinity in assay [1] was put at a Ki of 130 nM.
For the compound `CCOC(=O)[C@@H]1CSC(c2ccccc2)N1C(=O)c1cn(CCc2ccsc2)nn1` (stereo partly drawn), in assay [1], the Ki – broadly, a measure of affinity in units of concentration, obtained from inhibition or displacement – is 1000 nM.
For `CCOC(=O)[C@@H]1CSC(c2ccccc2)N1C(=O)c1cn(CCCNC(=O)C(F)(F)F)nn1` (stereo partly drawn), the outcome in assay [2] was inactive. Also, the outcome in assay [3] was Active. In addition, in assay [1], the IC50 was found to be 57 nM and affinity was put at a Ki of 57 nM. Further, in assay [4], the outcome was Active.
